From ChEMBL document CHEMBL1201862, “PubChem BioAssay data set” (2004)
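Protocol summary: plate cells (96-well), add compound at 5 concentrations, incubate 48 h, interpolate endpoints linearly. GI50 = concentration required for 50% inhibition of growth.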 Activity calls are given as the source filed them. No stated cut-off is given here; in the data, active = GI50 up to about 1.1 µM and inactive = higher.

Key:
Experiment in all cases: NCI-60 cell line screen, 48 h
RPMI-8226 = test system: RPMI-8226
SK-MEL-5 = test system: SK-MEL-5
SF-268 = test system: SF-268
Malme-3M = test system: Malme-3M
EKVX = test system: EKVX
M14 = test system: M14
HCC 2998 = test system: HCC 2998
SK-MEL-28 = test system: SK-MEL-28
OVCAR-8 = test system: OVCAR-8
KM12 = test system: KM12
CCRF-CEM = test system: CCRF-CEM
HOP-62 = test system: HOP-62
NCI-H23 = test system: NCI-H23
NCI-H226 = test system: NCI-H226
SK-OV-3 = test system: SK-OV-3
ACHN = test system: ACHN

Compound	GI50 (RPMI-8226)	GI50 (SK-MEL-5)	GI50 (SF-268)	GI50 (Malme-3M)	GI50 (EKVX)	GI50 (M14)	GI50 (HCC 2998)	GI50 (SK-MEL-28)	GI50 (OVCAR-8)	GI50 (KM12)	GI50 (CCRF-CEM)	GI50 (HOP-62)	GI50 (NCI-H23)	GI50 (NCI-H226)	GI50 (SK-OV-3)	GI50 (ACHN)
C/C(CC(=O)Nc1ccc(C)c(C)c1)=N\NC(N)=O	> 100 µM (inactive)	> 100 µM (inactive)	> 100 µM (inactive)	> 100 µM (inactive)	> 100 µM (inactive)	> 100 µM (inactive)	> 100 µM (inactive)	> 100 µM (inactive)	> 100 µM (inactive)	> 100 µM (inactive)	> 100 µM (inactive)	> 100 µM (inactive)	> 100 µM (inactive)	57.9 µM (inactive)	> 100 µM (inactive)	> 100 µM (inactive)
Cc1nc2nnc(C)n2c2c1C(=O)Nc1ccccc1N2	> 100 µM (inactive)	–	> 100 µM (inactive)	> 100 µM (inactive)	> 100 µM (inactive)	> 100 µM (inactive)	> 100 µM (inactive)	> 100 µM (inactive)	> 100 µM (inactive)	> 100 µM (inactive)	> 100 µM (inactive)	> 100 µM (inactive)	> 100 µM (inactive)	> 100 µM (inactive)	> 100 µM (inactive)	> 100 µM (inactive)
CC1=NN(C(=O)c2ccncc2)C(=O)C1/N=N/c1ccc(F)cc1 (configuration not stated)	> 100 µM (inactive)	> 100 µM (inactive)	> 100 µM (inactive)	> 100 µM (inactive)	20 µM (inactive)	> 100 µM (inactive)	–	> 100 µM (inactive)	> 100 µM (inactive)	–	–	–	> 100 µM (inactive)	81.1 µM (inactive)	> 100 µM (inactive)	> 100 µM (inactive)
Cn1c2cc([N+](=O)[O-])ccc2c(=O)c2c(O)cc3c(c21)C=CC(C)(C)O3	> 100 µM (inactive)	> 100 µM (inactive)	35.1 µM (inactive)	> 100 µM (inactive)	22 µM (inactive)	> 100 µM (inactive)	> 100 µM (inactive)	> 100 µM (inactive)	59.3 µM (inactive)	> 100 µM (inactive)	> 100 µM (inactive)	–	63.4 µM (inactive)	–	21.9 µM (inactive)	> 100 µM (inactive)
C/C(=N\NC(=N)N)C(CN1CCOCC1)C(c1ccccc1)c1c(O)c2ccccc2oc1=O (configuration not stated)	85.9 µM (inactive)	> 100 µM (inactive)	> 100 µM (inactive)	25.9 µM (inactive)	> 100 µM (inactive)	> 100 µM (inactive)	> 100 µM (inactive)	> 100 µM (inactive)	> 100 µM (inactive)	> 100 µM (inactive)	> 100 µM (inactive)	> 100 µM (inactive)	76.7 µM (inactive)	> 100 µM (inactive)	> 100 µM (inactive)	> 100 µM (inactive)
NCCNc1cccc2ccccc12	> 100 µM (inactive)	–	> 100 µM (inactive)	> 100 µM (inactive)	> 100 µM (inactive)	> 100 µM (inactive)	> 100 µM (inactive)	–	> 100 µM (inactive)	> 100 µM (inactive)	–	> 100 µM (inactive)	> 100 µM (inactive)	> 100 µM (inactive)	> 100 µM (inactive)	> 100 µM (inactive)
Cc1cc2c(c(C(N)=O)c1C)-c1cc(Cl)cc(Cl)c1C2=O	> 100 µM (inactive)	–	97.7 µM (inactive)	> 100 µM (inactive)	58.9 µM (inactive)	> 100 µM (inactive)	> 100 µM (inactive)	> 100 µM (inactive)	37.7 µM (inactive)	> 100 µM (inactive)	> 100 µM (inactive)	> 100 µM (inactive)	> 100 µM (inactive)	–	57.4 µM (inactive)	> 100 µM (inactive)
CNS(=O)(=O)NNS(=O)(=O)c1cccc([N+](=O)[O-])c1	> 100 µM (inactive)	> 100 µM (inactive)	–	> 100 µM (inactive)	> 100 µM (inactive)	> 100 µM (inactive)	> 100 µM (inactive)	–	> 100 µM (inactive)	> 100 µM (inactive)	> 100 µM (inactive)	> 100 µM (inactive)	> 100 µM (inactive)	–	–	> 100 µM (inactive)
Cc1nc(O)nc(CC(O)(c2ccccc2)c2ccccc2)c1-c1ccccc1	–	> 100 µM (inactive)	> 100 µM (inactive)	> 100 µM (inactive)	> 100 µM (inactive)	> 100 µM (inactive)	> 100 µM (inactive)	> 100 µM (inactive)	> 100 µM (inactive)	> 100 µM (inactive)	> 100 µM (inactive)	> 100 µM (inactive)	> 100 µM (inactive)	> 100 µM (inactive)	> 100 µM (inactive)	> 100 µM (inactive)
COc1ccc(/C=N/NC(=O)NCCNCCO)cc1	> 100 µM (inactive)	> 100 µM (inactive)	> 100 µM (inactive)	> 100 µM (inactive)	–	> 100 µM (inactive)	–	> 100 µM (inactive)	> 100 µM (inactive)	> 100 µM (inactive)	> 100 µM (inactive)	> 100 µM (inactive)	> 100 µM (inactive)	> 100 µM (inactive)	> 100 µM (inactive)	> 100 µM (inactive)
CCOC(=O)C1=C(C)N(NC(=O)Nc2ccccc2)C2(N)N(NC(=O)Nc3ccccc3)C(C)=C(C(=O)OCC)C12C#N (configuration not stated)	22 µM (inactive)	–	19.9 µM (inactive)	15.5 µM (inactive)	–	19.9 µM (inactive)	19.2 µM (inactive)	16.9 µM (inactive)	18.5 µM (inactive)	–	28.2 µM (inactive)	–	22.3 µM (inactive)	18.4 µM (inactive)	25.5 µM (inactive)	21 µM (inactive)
CCCC/C=C1\CCC(CN2CCCC2)C1=O (configuration not stated)	–	17.3 µM (inactive)	16 µM (inactive)	17.8 µM (inactive)	3.98 µM (inactive)	11.2 µM (inactive)	18.7 µM (inactive)	15.7 µM (inactive)	15.1 µM (inactive)	2.61 µM (inactive)	3.5 µM (inactive)	18.4 µM (inactive)	17.7 µM (inactive)	17.3 µM (inactive)	28.5 µM (inactive)	6.46 µM (inactive)
CN(C)c1ccc(/C=C2\C=Cc3ccccc32)cc1	35.3 µM (inactive)	36.3 µM (inactive)	45.1 µM (inactive)	> 100 µM (inactive)	–	29.2 µM (inactive)	78 µM (inactive)	43.6 µM (inactive)	94.8 µM (inactive)	49.7 µM (inactive)	43.2 µM (inactive)	> 100 µM (inactive)	35.6 µM (inactive)	–	45.9 µM (inactive)	> 100 µM (inactive)
Cc1ccc(/C=C/C(=O)c2sc(-c3cccnc3)nc2C)cc1	> 100 µM (inactive)	> 100 µM (inactive)	–	> 100 µM (inactive)	> 100 µM (inactive)	–	> 100 µM (inactive)	–	> 100 µM (inactive)	> 100 µM (inactive)	> 100 µM (inactive)	> 100 µM (inactive)	> 100 µM (inactive)	> 100 µM (inactive)	> 100 µM (inactive)	> 100 µM (inactive)
CCOC(=O)C12CCSC1C1(C#N)C(C#N)=CC2(N=P(c2ccccc2)(c2ccccc2)c2ccccc2)n2c(=O)n(-c3ccccc3)c(=O)n21 (configuration not stated)	26.1 µM (inactive)	25.2 µM (inactive)	35.1 µM (inactive)	44.6 µM (inactive)	82.2 µM (inactive)	42.2 µM (inactive)	27.7 µM (inactive)	27.5 µM (inactive)	47.1 µM (inactive)	32.6 µM (inactive)	34.5 µM (inactive)	46.2 µM (inactive)	49.7 µM (inactive)	41.3 µM (inactive)	–	40.2 µM (inactive)
Cc1nc(Nc2ccccc2)sc1C(=O)CC(=O)C(=O)NC12CC3CC(CC(C3)C1)C2	–	74.5 µM (inactive)	> 100 µM (inactive)	> 100 µM (inactive)	7.21 µM (inactive)	> 100 µM (inactive)	> 100 µM (inactive)	> 100 µM (inactive)	> 100 µM (inactive)	> 100 µM (inactive)	82.4 µM (inactive)	83.2 µM (inactive)	> 100 µM (inactive)	> 100 µM (inactive)	> 100 µM (inactive)	> 100 µM (inactive)
N#CC1=C(N)Oc2c(ccc3cccnc23)C1c1ccccc1 (configuration not stated)	–	0.811 µM (active)	2.73 µM (inactive)	15.2 µM (inactive)	4.78 µM (inactive)	0.57 µM (active)	4.69 µM (inactive)	6.12 µM (inactive)	3.38 µM (inactive)	0.441 µM (active)	1.44 µM (inactive)	1.16 µM (inactive)	1.31 µM (inactive)	–	0.731 µM (active)	10.4 µM (inactive)
Cc1nc2c(n1CC(C)(C)C)C(=O)c1ccccc1C2=O	–	43.1 µM (inactive)	> 100 µM (inactive)	76.9 µM (inactive)	> 100 µM (inactive)	> 100 µM (inactive)	> 100 µM (inactive)	> 100 µM (inactive)	> 100 µM (inactive)	> 100 µM (inactive)	> 100 µM (inactive)	> 100 µM (inactive)	> 100 µM (inactive)	> 100 µM (inactive)	> 100 µM (inactive)	> 100 µM (inactive)
CCOC(=O)[C@H]1Nc2ccc(OC)cc2C2c3ccccc3CC21 (some centres not stated)	> 100 µM (inactive)	> 100 µM (inactive)	> 100 µM (inactive)	> 100 µM (inactive)	–	> 100 µM (inactive)	46.8 µM (inactive)	> 100 µM (inactive)	> 100 µM (inactive)	> 100 µM (inactive)	–	> 100 µM (inactive)	> 100 µM (inactive)	> 100 µM (inactive)	–	> 100 µM (inactive)
